# Reference: PMC6120666 (The EMBO Journal, 2018)
# Assays:
# Test in all cases: Drug affinity chromatography with c-ponatinib and LC-MS/MS (ponatinib interactome)
# Assay type in all cases: binding
# [1] = target: T1, proteins of U2OS cell lysate (Homo sapiens, UniProt O14818); details: PSMA7;PSMA8, Proteasome subunit alpha type-7
# T1 construct: Proteins enriched by c-ponatinib from U2OS cell lysate; endogenous in cells; host or cells: U2OS cell lysate
# How it was run: (§1)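 U2OS cell lysate in NP-40 lysis buffer (2 mg protein per pulldown) was incubated with amine-derivatized NHS beads for 2 h at 4 °C. Bound proteins were washed, eluted with 100 mM formic acid, reduced, alkylated and trypsin-digested, then identified by nano-UPLC–MS/MS on Orbitrap instruments with a 60 min gradient.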
# [2] = target: T2, proteins of U2OS cell lysate (Homo sapiens, UniProt O14980); details: XPO1, Exportin-1
# T2 construct: Proteins enriched by c-ponatinib from U2OS cell lysate; endogenous in cells; host or cells: U2OS cell lysate
# How it was run: as §1
# [3] = target: T3, proteins of U2OS cell lysate (Homo sapiens, UniProt O43143); details: DHX15, Putative pre-mRNA-splicing factor ATP-dependent RNA helicase DHX15
# T3 construct: Proteins enriched by c-ponatinib from U2OS cell lysate; endogenous in cells; host or cells: U2OS cell lysate
# How it was run: as §1
# [4] = target: T4, proteins of U2OS cell lysate (Homo sapiens, UniProt P00387); details: CYB5R3, NADH-cytochrome b5 reductase 3
# T4 construct: Proteins enriched by c-ponatinib from U2OS cell lysate; endogenous in cells; host or cells: U2OS cell lysate
# How it was run: as §1
# [5] = target: T5, proteins of U2OS cell lysate (Homo sapiens, UniProt P09038); details: FGF2, Fibroblast growth factor 2
# T5 construct: Proteins enriched by c-ponatinib from U2OS cell lysate; endogenous in cells; host or cells: U2OS cell lysate
# How it was run: as §1
# [6] = target: T6, proteins of U2OS cell lysate (Homo sapiens, UniProt P22830); details: FECH, Ferrochelatase, mitochondrial
# T6 construct: Proteins enriched by c-ponatinib from U2OS cell lysate; endogenous in cells; host or cells: U2OS cell lysate
# How it was run: as §1
# [7] = target: T7, proteins of U2OS cell lysate (Homo sapiens, UniProt P28070); details: PSMB4, Proteasome subunit beta type-4
# T7 construct: Proteins enriched by c-ponatinib from U2OS cell lysate; endogenous in cells; host or cells: U2OS cell lysate
# How it was run: as §1
# [8] = target: T8, proteins of U2OS cell lysate (Homo sapiens, UniProt P33991); details: MCM4, DNA replication licensing factor MCM4
# T8 construct: Proteins enriched by c-ponatinib from U2OS cell lysate; endogenous in cells; host or cells: U2OS cell lysate
# How it was run: as §1
# [9] = target: T9, proteins of U2OS cell lysate (Homo sapiens, UniProt P35580); details: MYH10, Myosin-10
# T9 construct: Proteins enriched by c-ponatinib from U2OS cell lysate; endogenous in cells; host or cells: U2OS cell lysate
# How it was run: as §1
# [10] = target: T10, proteins of U2OS cell lysate (Homo sapiens, UniProt P50990); details: CCT8, T-complex protein 1 subunit theta
# T10 construct: Proteins enriched by c-ponatinib from U2OS cell lysate; endogenous in cells; host or cells: U2OS cell lysate
# How it was run: as §1
# [11] = target: T11, proteins of U2OS cell lysate (Homo sapiens, UniProt P51572); details: BCAP31, B-cell receptor-associated protein 31
# T11 construct: Proteins enriched by c-ponatinib from U2OS cell lysate; endogenous in cells; host or cells: U2OS cell lysate
# How it was run: as §1
# [12] = target: T12, proteins of U2OS cell lysate (Homo sapiens, UniProt P61247); details: RPS3A, 40S ribosomal protein S3a
# T12 construct: Proteins enriched by c-ponatinib from U2OS cell lysate; endogenous in cells; host or cells: U2OS cell lysate
# How it was run: as §1
# [13] = target: T13, proteins of U2OS cell lysate (Homo sapiens, UniProt Q01650); details: SLC7A5, Large neutral amino acids transporter small subunit 1
# T13 construct: Proteins enriched by c-ponatinib from U2OS cell lysate; endogenous in cells; host or cells: U2OS cell lysate
# How it was run: as §1
# [14] = target: T14, proteins of U2OS cell lysate (Homo sapiens, UniProt Q13163); details: MAP2K5, Dual specificity mitogen-activated protein kinase kinase 5
# T14 construct: Proteins enriched by c-ponatinib from U2OS cell lysate; endogenous in cells; host or cells: U2OS cell lysate
# How it was run: as §1
# [15] = target: T15, proteins of U2OS cell lysate (Homo sapiens, UniProt Q14165); details: MLEC, Malectin
# T15 construct: Proteins enriched by c-ponatinib from U2OS cell lysate; endogenous in cells; host or cells: U2OS cell lysate
# How it was run: as §1
# [16] = target: T16, proteins of U2OS cell lysate (Homo sapiens, UniProt Q6PJG6); details: BRAT1, BRCA1-associated ATM activator 1
# T16 construct: Proteins enriched by c-ponatinib from U2OS cell lysate; endogenous in cells; host or cells: U2OS cell lysate
# How it was run: as §1
# [17] = target: T17, proteins of U2OS cell lysate (Homo sapiens, UniProt Q96MW5); details: COG8, Conserved oligomeric Golgi complex subunit 8
# T17 construct: Proteins enriched by c-ponatinib from U2OS cell lysate; endogenous in cells; host or cells: U2OS cell lysate
# How it was run: as §1
# [18] = target: T18, proteins of U2OS cell lysate (Homo sapiens, UniProt Q9BSJ8); details: ESYT1, Extended synaptotagmin-1
# T18 construct: Proteins enriched by c-ponatinib from U2OS cell lysate; endogenous in cells; host or cells: U2OS cell lysate
# How it was run: as §1
# [19] = target: T19, proteins of U2OS cell lysate (Homo sapiens, UniProt Q9P2E9); details: RRBP1, Ribosome-binding protein 1
# T19 construct: Proteins enriched by c-ponatinib from U2OS cell lysate; endogenous in cells; host or cells: U2OS cell lysate
# How it was run: as §1
# T6 sequence (P22830 55-423): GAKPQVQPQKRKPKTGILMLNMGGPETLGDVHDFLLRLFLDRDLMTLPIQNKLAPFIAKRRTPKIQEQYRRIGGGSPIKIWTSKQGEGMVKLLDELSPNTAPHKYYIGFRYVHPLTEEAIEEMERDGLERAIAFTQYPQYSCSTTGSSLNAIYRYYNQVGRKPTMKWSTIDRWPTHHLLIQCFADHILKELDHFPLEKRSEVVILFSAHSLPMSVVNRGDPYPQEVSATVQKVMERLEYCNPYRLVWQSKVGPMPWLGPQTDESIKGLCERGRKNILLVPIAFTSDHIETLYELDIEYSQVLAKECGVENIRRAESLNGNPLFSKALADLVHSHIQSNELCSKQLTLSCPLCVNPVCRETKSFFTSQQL
# T19 sequence (Q9P2E9 whole entry): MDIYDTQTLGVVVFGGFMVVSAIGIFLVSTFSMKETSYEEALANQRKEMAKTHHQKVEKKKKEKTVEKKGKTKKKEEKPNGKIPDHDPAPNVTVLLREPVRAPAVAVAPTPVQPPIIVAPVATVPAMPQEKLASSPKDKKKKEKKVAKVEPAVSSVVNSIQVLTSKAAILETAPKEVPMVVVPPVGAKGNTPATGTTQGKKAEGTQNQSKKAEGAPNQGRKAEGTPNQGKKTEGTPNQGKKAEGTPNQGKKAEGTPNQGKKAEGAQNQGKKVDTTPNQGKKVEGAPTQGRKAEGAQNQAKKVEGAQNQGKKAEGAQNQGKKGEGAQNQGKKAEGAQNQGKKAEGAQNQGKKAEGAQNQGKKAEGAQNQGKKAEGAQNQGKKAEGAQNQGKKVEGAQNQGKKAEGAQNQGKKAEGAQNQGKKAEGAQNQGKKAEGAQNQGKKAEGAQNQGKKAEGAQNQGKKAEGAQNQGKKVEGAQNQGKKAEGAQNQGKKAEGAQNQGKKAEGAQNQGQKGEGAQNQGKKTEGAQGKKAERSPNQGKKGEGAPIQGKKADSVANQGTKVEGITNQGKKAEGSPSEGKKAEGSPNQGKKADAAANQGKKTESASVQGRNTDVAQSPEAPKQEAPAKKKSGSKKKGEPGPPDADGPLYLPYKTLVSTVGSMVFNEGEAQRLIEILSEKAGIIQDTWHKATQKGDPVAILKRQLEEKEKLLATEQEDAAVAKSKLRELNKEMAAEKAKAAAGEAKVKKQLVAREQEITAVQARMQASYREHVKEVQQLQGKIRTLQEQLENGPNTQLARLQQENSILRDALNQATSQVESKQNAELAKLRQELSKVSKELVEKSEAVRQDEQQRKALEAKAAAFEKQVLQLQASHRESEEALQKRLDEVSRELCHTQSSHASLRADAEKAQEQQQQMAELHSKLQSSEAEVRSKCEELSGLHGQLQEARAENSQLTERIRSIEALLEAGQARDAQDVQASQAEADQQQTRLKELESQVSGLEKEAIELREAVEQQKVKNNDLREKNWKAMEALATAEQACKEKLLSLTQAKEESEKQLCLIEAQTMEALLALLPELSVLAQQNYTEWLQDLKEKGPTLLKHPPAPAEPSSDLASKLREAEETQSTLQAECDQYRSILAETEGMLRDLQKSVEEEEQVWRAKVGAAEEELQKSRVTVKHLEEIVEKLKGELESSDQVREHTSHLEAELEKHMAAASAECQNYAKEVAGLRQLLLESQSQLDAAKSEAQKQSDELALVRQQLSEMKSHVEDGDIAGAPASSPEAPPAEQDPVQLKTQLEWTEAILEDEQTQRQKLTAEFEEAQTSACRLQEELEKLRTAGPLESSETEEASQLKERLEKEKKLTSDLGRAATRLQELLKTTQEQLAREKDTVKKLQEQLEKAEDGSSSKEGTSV
# T13 sequence (Q01650 whole entry): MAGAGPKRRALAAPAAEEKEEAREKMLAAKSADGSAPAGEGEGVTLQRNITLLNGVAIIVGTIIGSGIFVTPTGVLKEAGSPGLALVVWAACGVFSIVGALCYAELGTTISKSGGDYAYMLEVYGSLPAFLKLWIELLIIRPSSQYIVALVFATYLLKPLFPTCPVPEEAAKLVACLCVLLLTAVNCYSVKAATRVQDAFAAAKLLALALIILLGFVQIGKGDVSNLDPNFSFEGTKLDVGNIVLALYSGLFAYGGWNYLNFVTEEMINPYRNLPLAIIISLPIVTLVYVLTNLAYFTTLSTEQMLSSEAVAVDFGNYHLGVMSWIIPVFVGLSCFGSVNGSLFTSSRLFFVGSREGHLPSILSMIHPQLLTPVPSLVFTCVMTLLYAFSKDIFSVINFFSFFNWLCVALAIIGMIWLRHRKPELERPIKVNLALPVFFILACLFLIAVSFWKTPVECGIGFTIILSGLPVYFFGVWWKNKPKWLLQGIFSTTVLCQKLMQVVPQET
# T18 sequence (Q9BSJ8 whole entry): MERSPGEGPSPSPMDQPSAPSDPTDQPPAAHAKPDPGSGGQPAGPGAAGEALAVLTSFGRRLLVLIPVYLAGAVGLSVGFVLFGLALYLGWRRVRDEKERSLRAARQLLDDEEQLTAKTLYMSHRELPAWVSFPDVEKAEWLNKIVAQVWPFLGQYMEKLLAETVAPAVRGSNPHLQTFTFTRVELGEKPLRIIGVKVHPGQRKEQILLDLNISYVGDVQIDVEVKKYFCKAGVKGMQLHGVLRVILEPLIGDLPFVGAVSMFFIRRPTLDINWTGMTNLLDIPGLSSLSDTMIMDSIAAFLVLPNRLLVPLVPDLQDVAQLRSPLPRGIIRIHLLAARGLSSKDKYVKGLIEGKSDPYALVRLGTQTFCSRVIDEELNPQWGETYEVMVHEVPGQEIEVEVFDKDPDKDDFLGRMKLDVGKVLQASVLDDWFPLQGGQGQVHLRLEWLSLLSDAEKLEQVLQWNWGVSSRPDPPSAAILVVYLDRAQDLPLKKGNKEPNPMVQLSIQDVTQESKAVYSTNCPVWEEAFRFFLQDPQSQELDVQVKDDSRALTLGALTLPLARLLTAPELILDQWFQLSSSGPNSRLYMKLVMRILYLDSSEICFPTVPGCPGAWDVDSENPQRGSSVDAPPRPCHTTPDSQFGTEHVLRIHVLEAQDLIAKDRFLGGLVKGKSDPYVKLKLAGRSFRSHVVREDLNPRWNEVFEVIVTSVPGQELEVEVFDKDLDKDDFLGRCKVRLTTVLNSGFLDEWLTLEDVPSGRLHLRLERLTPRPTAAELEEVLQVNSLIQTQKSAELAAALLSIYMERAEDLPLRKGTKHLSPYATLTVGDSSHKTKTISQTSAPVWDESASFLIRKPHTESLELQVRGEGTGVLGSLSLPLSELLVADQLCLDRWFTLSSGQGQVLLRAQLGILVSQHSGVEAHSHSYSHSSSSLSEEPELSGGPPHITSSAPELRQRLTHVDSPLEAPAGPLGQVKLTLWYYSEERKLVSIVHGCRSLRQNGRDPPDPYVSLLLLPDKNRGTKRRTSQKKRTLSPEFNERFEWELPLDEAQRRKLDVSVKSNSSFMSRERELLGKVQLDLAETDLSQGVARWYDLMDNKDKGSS
# T8 sequence (P33991 whole entry): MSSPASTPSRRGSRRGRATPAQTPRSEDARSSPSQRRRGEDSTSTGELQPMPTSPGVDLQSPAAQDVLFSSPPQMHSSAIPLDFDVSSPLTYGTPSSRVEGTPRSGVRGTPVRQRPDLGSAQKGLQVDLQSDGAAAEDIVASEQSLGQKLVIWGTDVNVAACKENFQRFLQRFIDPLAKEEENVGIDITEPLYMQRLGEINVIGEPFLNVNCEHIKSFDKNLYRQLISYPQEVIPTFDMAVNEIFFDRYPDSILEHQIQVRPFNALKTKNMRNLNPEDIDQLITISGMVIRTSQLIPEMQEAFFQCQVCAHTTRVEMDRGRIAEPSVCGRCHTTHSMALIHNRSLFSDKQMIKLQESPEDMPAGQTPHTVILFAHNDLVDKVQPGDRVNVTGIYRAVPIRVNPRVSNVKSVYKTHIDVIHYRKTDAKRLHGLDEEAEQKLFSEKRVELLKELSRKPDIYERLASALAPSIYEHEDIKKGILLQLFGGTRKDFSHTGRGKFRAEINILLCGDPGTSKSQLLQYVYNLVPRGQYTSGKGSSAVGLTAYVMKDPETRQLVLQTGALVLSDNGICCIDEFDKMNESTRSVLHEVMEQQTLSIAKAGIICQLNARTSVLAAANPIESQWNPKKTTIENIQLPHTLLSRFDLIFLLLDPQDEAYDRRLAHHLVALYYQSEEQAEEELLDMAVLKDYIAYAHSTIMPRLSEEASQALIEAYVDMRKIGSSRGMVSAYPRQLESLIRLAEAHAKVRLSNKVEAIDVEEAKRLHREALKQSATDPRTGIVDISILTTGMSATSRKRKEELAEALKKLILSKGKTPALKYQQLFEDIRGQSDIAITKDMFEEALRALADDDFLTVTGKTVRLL
# T3 sequence (O43143 whole entry): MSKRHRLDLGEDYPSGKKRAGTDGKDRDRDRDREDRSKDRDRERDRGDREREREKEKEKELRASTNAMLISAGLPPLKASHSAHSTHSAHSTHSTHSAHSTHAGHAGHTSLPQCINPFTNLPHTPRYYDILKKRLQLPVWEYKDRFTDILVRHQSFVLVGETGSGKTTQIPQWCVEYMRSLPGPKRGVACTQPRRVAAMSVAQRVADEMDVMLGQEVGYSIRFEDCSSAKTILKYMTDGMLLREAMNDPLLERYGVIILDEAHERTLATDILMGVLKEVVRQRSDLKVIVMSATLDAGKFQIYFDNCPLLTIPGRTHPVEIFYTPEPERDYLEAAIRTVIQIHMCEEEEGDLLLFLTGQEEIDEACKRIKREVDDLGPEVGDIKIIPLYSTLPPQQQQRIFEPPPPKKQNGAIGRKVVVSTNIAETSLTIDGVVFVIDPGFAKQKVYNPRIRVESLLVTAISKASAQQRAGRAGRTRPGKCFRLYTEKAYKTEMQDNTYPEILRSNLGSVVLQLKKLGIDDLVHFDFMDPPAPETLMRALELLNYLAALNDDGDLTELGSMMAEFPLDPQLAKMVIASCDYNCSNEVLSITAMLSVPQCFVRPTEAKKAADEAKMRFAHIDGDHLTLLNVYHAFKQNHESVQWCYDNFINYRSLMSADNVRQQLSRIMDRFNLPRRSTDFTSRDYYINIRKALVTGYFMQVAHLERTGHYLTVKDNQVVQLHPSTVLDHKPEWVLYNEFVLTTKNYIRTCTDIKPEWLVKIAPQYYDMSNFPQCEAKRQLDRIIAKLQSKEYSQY
compound,measurement,setting,value
Cc1ccc(C(=O)Nc2ccc(CN3CCN(C)CC3)c(C(F)(F)F)c2)cc1C#Cc1cnc2cccnn12 [PON],Average LFQ PON_WT,[1],22.0977
same,Average LFQ PON_WT,[2],23.5357
same,Average LFQ PON_WT,[3],20.8395
same,Average LFQ PON_WT,[4],20.8184
same,Average LFQ PON_WT,[5],20.5832
same,Average LFQ PON_WT,[6],25.7972
same,Average LFQ PON_WT,[7],21.0941
same,Average LFQ PON_WT,[8],19.8468
same,Average LFQ PON_WT,[9],20.7261
same,Average LFQ PON_WT,[10],24.1007
same,Average LFQ PON_WT,[11],23.9511
same,Average LFQ PON_WT,[12],21.3119
same,Average LFQ PON_WT,[13],21.4059
same,Average LFQ PON_WT,[14],19.6379
same,Average LFQ PON_WT,[15],19.5713
same,Average LFQ PON_WT,[16],19.9568
same,Average LFQ PON_WT,[17],20.9378
same,Average LFQ PON_WT,[18],18.8901
same,Average LFQ PON_WT,[19],20.1458
